Series [1] addresses T1, CnAcs1 (Cryptococcus neoformans, UniProt J9VFT1). Nature of the series: biochemical. In kind it is binding. Conditions: read-out: thermal shift (ΔTm).
Series [2] has as its target T1, CnAcs1. The series can be described thus: Coupled continuous pyrophosphate detection assay (EnzChek) of ACS activity. Conditions: for utilization as substrate for CnAcs1: alternative acid substrates.
A further series has as its target C. immitis Acs1 (Coccidioides immitis, UniProt J3KJC6). Nature of the series: biochemical.
For the next series, the target named is C. posadasii Acs1 (Coccidioides posadasii, UniProt C5PGB4). The series can be described thus: biochemical.
C. posadasii Acs1, sequence (C5PGB4 2-691 limits assumed): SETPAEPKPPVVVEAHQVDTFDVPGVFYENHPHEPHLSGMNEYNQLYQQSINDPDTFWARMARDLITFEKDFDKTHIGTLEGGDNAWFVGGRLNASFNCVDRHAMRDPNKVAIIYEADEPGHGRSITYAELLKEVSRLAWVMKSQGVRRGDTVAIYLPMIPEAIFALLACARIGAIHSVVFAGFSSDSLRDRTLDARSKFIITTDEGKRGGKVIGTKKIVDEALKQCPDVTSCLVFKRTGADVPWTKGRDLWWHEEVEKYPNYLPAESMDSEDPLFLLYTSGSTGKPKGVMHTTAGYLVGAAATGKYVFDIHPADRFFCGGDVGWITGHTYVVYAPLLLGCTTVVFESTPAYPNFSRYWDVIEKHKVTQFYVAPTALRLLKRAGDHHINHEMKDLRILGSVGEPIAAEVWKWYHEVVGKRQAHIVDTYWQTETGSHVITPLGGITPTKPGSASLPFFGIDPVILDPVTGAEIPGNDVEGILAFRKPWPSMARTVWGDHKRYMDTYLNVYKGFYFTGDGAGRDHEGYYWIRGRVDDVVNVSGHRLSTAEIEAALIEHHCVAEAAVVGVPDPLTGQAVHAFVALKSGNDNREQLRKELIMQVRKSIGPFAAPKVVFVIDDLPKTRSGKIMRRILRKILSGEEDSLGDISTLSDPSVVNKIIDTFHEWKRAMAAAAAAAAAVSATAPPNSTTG
The next series deals with T2, A. fumigatus Acs1 (Aspergillus fumigatus, UniProt Q4WQ02).
T2 sequence (Q4WQ02 2-670): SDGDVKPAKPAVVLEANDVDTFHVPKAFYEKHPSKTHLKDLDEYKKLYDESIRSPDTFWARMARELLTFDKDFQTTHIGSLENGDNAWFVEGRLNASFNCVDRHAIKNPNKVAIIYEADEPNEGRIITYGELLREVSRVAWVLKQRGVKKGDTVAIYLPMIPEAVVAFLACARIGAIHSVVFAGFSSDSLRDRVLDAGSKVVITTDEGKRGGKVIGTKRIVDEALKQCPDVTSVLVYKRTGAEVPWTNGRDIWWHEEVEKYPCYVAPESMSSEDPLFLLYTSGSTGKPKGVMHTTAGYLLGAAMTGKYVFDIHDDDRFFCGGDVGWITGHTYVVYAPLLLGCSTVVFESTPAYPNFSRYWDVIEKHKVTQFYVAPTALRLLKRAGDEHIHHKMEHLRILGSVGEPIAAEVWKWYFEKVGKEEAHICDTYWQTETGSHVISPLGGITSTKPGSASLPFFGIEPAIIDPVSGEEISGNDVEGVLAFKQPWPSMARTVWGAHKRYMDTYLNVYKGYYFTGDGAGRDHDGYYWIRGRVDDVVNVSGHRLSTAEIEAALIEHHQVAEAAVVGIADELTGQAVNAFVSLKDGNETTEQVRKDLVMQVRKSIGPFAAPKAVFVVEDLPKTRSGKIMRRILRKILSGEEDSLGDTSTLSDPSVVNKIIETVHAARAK
The series can be described thus: Coupled continuous pyrophosphate detection assay (EnzChek) of ACS activity.

The target in another series is C. albicans Acs1 (Candida albicans, UniProt Q8NJN3). The series is described as above.
C. albicans Acs1, sequence (Q8NJN3 2-671 limits assumed): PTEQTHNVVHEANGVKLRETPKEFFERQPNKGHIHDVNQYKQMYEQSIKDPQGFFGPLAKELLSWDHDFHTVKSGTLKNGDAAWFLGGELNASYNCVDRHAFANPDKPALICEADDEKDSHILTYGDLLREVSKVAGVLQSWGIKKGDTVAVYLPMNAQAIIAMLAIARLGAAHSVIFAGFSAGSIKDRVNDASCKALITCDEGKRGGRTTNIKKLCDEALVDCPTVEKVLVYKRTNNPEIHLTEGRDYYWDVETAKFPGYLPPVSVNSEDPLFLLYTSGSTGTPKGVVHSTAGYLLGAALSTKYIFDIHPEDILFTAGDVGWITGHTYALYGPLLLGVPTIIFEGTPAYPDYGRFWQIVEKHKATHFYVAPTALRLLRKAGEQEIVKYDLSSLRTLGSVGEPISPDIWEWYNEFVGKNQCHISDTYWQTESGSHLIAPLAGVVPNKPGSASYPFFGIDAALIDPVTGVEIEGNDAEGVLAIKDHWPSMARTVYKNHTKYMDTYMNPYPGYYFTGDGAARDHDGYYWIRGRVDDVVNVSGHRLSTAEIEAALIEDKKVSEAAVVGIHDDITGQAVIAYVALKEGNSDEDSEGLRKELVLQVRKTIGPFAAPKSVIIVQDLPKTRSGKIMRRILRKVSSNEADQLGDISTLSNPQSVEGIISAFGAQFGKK
Series [3] concerns CC(C)(COP(=O)(O)OP(=O)(O)OC[C@H]1O[C@@H](n2cnc3c(N)ncnc32)[C@H](O)[C@@H]1OP(=O)(O)O)[C@@H](O)C(=O)NCCC(=O)NCCS. Nature of the series: purified protein, by the assay type.
Series [4] relates to Nc1ncnc2c1ncn2[C@@H]1O[C@H](COP(=O)(O)OP(=O)(O)OP(=O)(O)O)[C@@H](O)[C@H]1O. The series can be described thus: purified protein, by the assay type. The note with it: 37.0 °C.
Substrate in series [5]: CC(C)(COP(=O)(O)OP(=O)(O)OC[C@H]1O[C@@H](n2cnc3c(N)ncnc32)[C@H](O)[C@@H]1OP(=O)(O)O)[C@@H](O)C(=O)NCCC(=O)NCCS
Nature of the series: purified protein, by the assay type. The note with it: 37 °C, ±S.E.M.

Substrate in series [6]: Nc1ncnc2c1ncn2[C@@H]1O[C@H](COP(=O)(O)OP(=O)(O)OP(=O)(O)O)[C@@H](O)[C@H]1O
Nature of the series: purified protein, by the assay type. Conditions: 37 °C, ±S.E.M.

Setting [7] is: other: substrate Km, other substrates in excess (ATP 2.5 mM, CoA 1 mM, sodium acetate 0.5 mM).
[8] abbreviates: other: commercially available enzyme, control, other substrates in excess.
The mark [9] stands for this setting: other: substrate Km, other substrates in excess.

C. immitis Acs1, sequence (J3KJC6 2-691 limits assumed): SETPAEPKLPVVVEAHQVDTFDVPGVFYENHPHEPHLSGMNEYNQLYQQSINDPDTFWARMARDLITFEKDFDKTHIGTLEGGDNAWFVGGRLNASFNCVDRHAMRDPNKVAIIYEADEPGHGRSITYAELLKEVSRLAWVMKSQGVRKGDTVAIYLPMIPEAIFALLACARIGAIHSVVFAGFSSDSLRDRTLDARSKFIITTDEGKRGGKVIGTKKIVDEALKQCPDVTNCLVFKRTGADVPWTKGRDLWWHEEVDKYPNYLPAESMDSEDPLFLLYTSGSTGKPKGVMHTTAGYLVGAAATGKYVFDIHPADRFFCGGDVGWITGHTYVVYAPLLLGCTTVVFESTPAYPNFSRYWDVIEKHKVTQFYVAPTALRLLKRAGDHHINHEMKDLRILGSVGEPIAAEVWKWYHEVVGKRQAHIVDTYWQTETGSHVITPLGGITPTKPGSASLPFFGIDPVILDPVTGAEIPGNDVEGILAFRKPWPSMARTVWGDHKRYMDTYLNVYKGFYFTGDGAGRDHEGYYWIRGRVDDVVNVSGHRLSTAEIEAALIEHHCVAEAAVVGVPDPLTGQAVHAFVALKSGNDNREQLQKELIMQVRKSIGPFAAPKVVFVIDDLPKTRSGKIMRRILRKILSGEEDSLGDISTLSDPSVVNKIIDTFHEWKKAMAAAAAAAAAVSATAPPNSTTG

The Ki is the dissociation constant of the complex between target and ligand, obtained from inhibition or displacement. Read a low Ki as tighter binding. `Nc1ncnc2c1ncn2[C@@H]1O[C@H](COS(N)(=O)=O)[C@@H](O)[C@H]1O` [AMS, adenosine monosulfonamide]: on CnAcs1 [1], the ΔTm at 1000 µM is -0.2 °C. At CnAcs1 [2], the Ki is over 50000 nM.
For orientation: IC50 means the midpoint of a concentration-inhibition curve. Turning to `CCOP(=O)(O)OC[C@H]1O[C@@H](n2cnc3c(N)ncnc32)[C@H](O)[C@@H]1O` [ethyl-AMP], on CnAcs1 [1], the ΔTm at 1000 µM was found to be 14.2 °C. Also, the IC50 came to 60 nM against C. immitis Acs1; 70 nM at C. posadasii Acs1; 2100 nM on CnAcs1 [2]; 60 nM on A. fumigatus Acs1; 290 nM against C. albicans Acs1. The molecule further came in with a Ki at CnAcs1 [2] of 470 nM.
`CCCOP(=O)(O)OC[C@H]1O[C@@H](n2cnc3c(N)ncnc32)[C@H](O)[C@@H]1O` [propyl-AMP, propyl-adenosine monophosphate ester]: the ΔTm at 1000 µM at CnAcs1 [1] was determined as 12.2 °C. Also, the inhibitory constant (Ki) at CnAcs1 [2] was 1240 ± 200 nM.
As usually defined, the Km is the substrate concentration at which the rate is half of its maximum. Take “C. posadasii Acs1 (Coccidioides posadasii C735 delta SOWgp)”: the results for the Km in series [3] (37.0 °C) and in series [4] were 314 ± 32 µM and 117 ± 15 µM, respectively.
`CCCCC(=O)O` [valerate, reference compound]: at CnAcs1 [2], the “utilization as substrate for CnAcs1” value is given as “neither valerate nor butyrate were CnAcs1 substrates”.
In the case of `NCC(=O)NS(=O)(=O)OCC1OC(n2cnc3c(N)ncnc32)C(O)C1O` (centres unmarked) [glycine derivative of AMS], the “inhibition of CnAcs1” value against CnAcs1 [2] is “no inhibition”.
Take `COP(=O)(O)OC[C@H]1O[C@@H](n2cnc3c(N)ncnc32)[C@H](O)[C@@H]1O` [methyl-AMP]: the ΔTm at 1000 µM on CnAcs1 [1] amounted to 8.3 °C. Further, on CnAcs1 [2], the affinity corresponds to a Ki of 39000 ± 11000 nM and the “fold less active than ethyl AMP ester” value was about 100 fold.
`CCCCOP(=O)(O)OC[C@H]1O[C@@H](n2cnc3c(N)ncnc32)[C@H](O)[C@@H]1O` [butyl-AMP]: the ΔTm at 1000 µM at CnAcs1 [1] is 6.7 °C. For the same molecule, at CnAcs1 [2], the half-inhibitory concentration (IC50) is over 50000 nM, the Ki was over 50000 nM and the “inhibition of CnAcs1” value is reported as “no inhibition”. This molecule also returned an IC50 against A. fumigatus Acs1 of over 50000 nM. The same molecule displayed a 50% inhibitory concentration (IC50) at C. albicans Acs1 of over 50000 nM.
With `CCCC(=O)O` [butyrate, reference compound], the “utilization as substrate for CnAcs1” value at CnAcs1 [2] is listed as “neither valerate nor butyrate were CnAcs1 substrates”. In addition, at CnAcs1 [2] (non-preferred acid substrate), the “inhibition of acetate utilization” value is recorded as “does not inhibit”.
For `Nc1ncnc2c1ncn2[C@@H]1O[C@H](COP(=O)(O)OP(=O)(O)OP(=O)(O)O)[C@@H](O)[C@H]1O` [ATP, adenosine triphosphate, reference compound], the “calculated binding energy ΔG” value at CnAcs1 [2] was -6 kcal/mol.
In the case of “C. albicans Acs1 (Candida albicans SC5314)”, the Km in [3] (other: substrate Km, other substrates in excess, 37 °C, ±S.E.M.) turned out to be 471 ± 45 µM.
In the case of `CC(=O)NS(=O)(=O)OC[C@H]1O[C@@H](n2cnc3c(N)ncnc32)[C@H](O)[C@@H]1O` [acyl-AMS, acetyl-adenosine monosulfonamide], on CnAcs1 [2], the affinity corresponds to a Ki of 590 nM.
For the molecule `CCC(=O)O` [propionate, reference compound], on CnAcs1 [2] (alternative acid substrate, relative to acetate), the “Km fold higher than acetate” value is over 100 fold.
For the molecule “C. immitis Acs1 (Coccidioides immitis RS)”, the Km in series [3] (37.0 °C) came out at 441 ± 45 µM; in series [4], 102 ± 8 µM.

B1: CnAcs1 (Cryptococcus neoformans H99) (protein)
chain: GKTEVAPGVHHVHPLPDSVPESEDLFAPPPRMQGKEGRPKPHIGPNYESYVKEWAKTVGPNSDEWWAAKARETLDWYDDFKTVRAGGFEHGDVQWFPEGTLNAAYNCLDRHYYKNPKKTAIIYEADEPSESREVSYEELMQETCRVANVLKSYGVKKGDAVSIYLPMTWQAAAAFLACARIGAIHSAVFAGFSAESLRDRVNDCECKVLITTDEGRRGGKTIATKQIVDAALQQCPLVENVLVLRRTGNKVPMTEGRDKWWDEECAKMPAYCPCERMASEDPLFILYTSGSTGKPKGVVHSTAGYLLGTALTLKYVFDAHPDDRFACMADIGWITGHSYIIYGPLANGITTAVFESTPVYPTPSRYWDFVDKWKATQLYTAPTAIRLLRRMGEDHVKNHDLSSLRVLGSVGEPINPEAWHWYNDFAGKNQCAIVDTYWMTETGSISIAPLPGAISTKPGSATFPFFGMDVDIIDPQTGQVLEGNDVEGVLVARRPWPSIARTVYRDHKRYLETYMKPYPGYFFFGDGAARDYDGYMWIKGRVDDVINVSGHRLSTAEVESALILHKGVAETAVVGCADDLTGQAVYAFVTMKPEFDLKATKEADLSKELAIQVRKVIGPFAAPKKIYLVSDLPKTRSGKIMRRVLRKIVAGEGDQLGDLSSIADPQIVEEVKQKVTGSA
As for B1, the figures for the Michaelis-Menten constant (Km) in series [5] (setting [7]) and in series [6] (setting [7]) were 880 ± 170 µM and 59 ± 10 µM, respectively.

B2: S. cerevisiae Acs1 (Saccharomyces cerevisiae S288C) (protein)
chain: MSPSAVQSSKLEEQSSEIDKLKAKMSQSAATAQQKKEHEYEHLTSVKIVPQRPISDRLQPAIATHYSPHLDGLQDYQRLHKESIEDPAKFFGSKATQFLNWSKPFDKVFIPDPKTGRPSFQNNAWFLNGQLNACYNCVDRHALKTPNKKAIIFEGDEPGQGYSITYKELLEEVCQVAQVLTYSMGVRKGDTVAVYMPMVPEAIITLLAISRIGAIHSVVFAGFSSNSLRDRINDGDSKVVITTDESNRGGKVIETKRIVDDALRETPGVRHVLVYRKTNNPSVAFHAPRDLDWATEKKKYKTYYPCTPVDSEDPLFLLYTSGSTGAPKGVQHSTAGYLLGALLTMRYTFDTHQEDVFFTAGDIGWITGHTYVVYGPLLYGCATLVFEGTPAYPNYSRYWDIIDEHKVTQFYVAPTALRLLKRAGDSYIENHSLKSLRCLGSVGEPIAAEVWEWYSEKIGKNEIPIVDTYWQTESGSHLVTPLAGGVTPMKPGSASFPFFGIDAVVLDPNTGEELNTSHAEGVLAVKAAWPSFARTIWKNHDRYLDTYLNPYPGYYFTGDGAAKDKDGYIWILGRVDDVVNVSGHRLSTAEIEAAIIEDPIVAECAVVGFNDDLTGQAVAAFVVLKNKSSWSTATDDELQDIKKHLVFTVRKDIGPFAAPKLIILVDDLPKTRSGKIMRRILRKILAGESDQLGDVSTLSNPGIVRHLIDSVKL
On to B2, for which the Km is 348 ± 43 µM in [5] (setting [8]) and 161 ± 73 µM in series [6] (setting [8]).

B3: A. fumigatus Acs1 (Aspergillus fumigatus Af293) (protein)
chain: SDGDVKPAKPAVVLEANDVDTFHVPKAFYEKHPSKTHLKDLDEYKKLYDESIRSPDTFWARMARELLTFDKDFQTTHIGSLENGDNAWFVEGRLNASFNCVDRHAIKNPNKVAIIYEADEPNEGRIITYGELLREVSRVAWVLKQRGVKKGDTVAIYLPMIPEAVVAFLACARIGAIHSVVFAGFSSDSLRDRVLDAGSKVVITTDEGKRGGKVIGTKRIVDEALKQCPDVTSVLVYKRTGAEVPWTNGRDIWWHEEVEKYPCYVAPESMSSEDPLFLLYTSGSTGKPKGVMHTTAGYLLGAAMTGKYVFDIHDDDRFFCGGDVGWITGHTYVVYAPLLLGCSTVVFESTPAYPNFSRYWDVIEKHKVTQFYVAPTALRLLKRAGDEHIHHKMEHLRILGSVGEPIAAEVWKWYFEKVGKEEAHICDTYWQTETGSHVISPLGGITSTKPGSASLPFFGIEPAIIDPVSGEEISGNDVEGVLAFKQPWPSMARTVWGAHKRYMDTYLNVYKGYYFTGDGAGRDHDGYYWIRGRVDDVVNVSGHRLSTAEIEAALIEHHQVAEAAVVGIADELTGQAVNAFVSLKDGNETTEQVRKDLVMQVRKSIGPFAAPKAVFVVEDLPKTRSGKIMRRILRKILSGEEDSLGDTSTLSDPSVVNKIIETVHAARAK
As to B3, the figures for the Michaelis constant (Km) in [5] (setting [9]) and in series [6] (setting [9]) were 340 ± 26 µM and 42 ± 11 µM, respectively.

These data come from PMC8383264, “Structural Characterization of the Reaction and Substrate Specificity Mechanisms of Pathogenic Fungal Acetyl-CoA Synthetases” (ACS Chemical Biology, 2021).
